Measured values as given in ChEMBL document CHEMBL4020759, “Sulfoximines as ATR inhibitors: Analogs of VE-821” (2017).

Assays:
Format in all cases: functional
T47D = test: Growth inhibition of human T47D cells assessed as cell growth at 10 uM incubated for 48 hrs by sulforhodamine B assay; details: read-out: Activity
OVCAR-5 = test: Growth inhibition of human OVCAR5 cells assessed as cell growth at 10 uM incubated for 48 hrs by sulforhodamine B assay; details: OVCAR-5, 48 h, read-out: Activity
MDA-MB-435 = test: Growth inhibition of human MDA-MB-435 cells assessed as cell growth at 10 uM incubated for 48 hrs by sulforhodamine B assay; details: MDA-MB-435, 48 h, read-out: Activity
SK-OV-3 = test: Growth inhibition of human SKOV3 cells assessed as cell growth at 10 uM incubated for 48 hrs by sulforhodamine B assay; details: SK-OV-3, 48 h, read-out: Activity

Structure (SMILES)	growth at 10 µM (T47D) [%]	growth at 10 µM (OVCAR-5) [%]	growth at 10 µM (MDA-MB-435) [%]	growth at 10 µM (SK-OV-3) [%]
C/S(=N\C#N)c1ccc(-c2cnc(N)c(C(=O)Nc3ccccc3)n2)cc1 (stereo not drawn)	82.9	120	84	68
CS(=O)(=NC#N)c1ccc(-c2cnc(N)c(C(=O)Nc3ccccc3)n2)cc1 (stereo not drawn)	99	163	87.7	56.8
